Source: US9399646B2 (Genentech, Inc., priority 2010, dated 2016)

Columns and labels:
[1] = target: T1, ER-α in MCF-7 cells (Homo sapiens, UniProt P03372); experiment: Breast cancer cell ER-α in cell western assay (SP1); format: cell-based; parameters: endogenous in cells; host or cells: MCF-7; details: 4 or 24 hr post compound addition; for Emax: MCF7, SP1 antibody, read-out: ER-α In Cell Western Assay (SP1) Max Response; for DC50: SP1 antibody, read-out: ER-α In Cell Western Assay (SP1) IC50
T1 sequence (P03372 1-595): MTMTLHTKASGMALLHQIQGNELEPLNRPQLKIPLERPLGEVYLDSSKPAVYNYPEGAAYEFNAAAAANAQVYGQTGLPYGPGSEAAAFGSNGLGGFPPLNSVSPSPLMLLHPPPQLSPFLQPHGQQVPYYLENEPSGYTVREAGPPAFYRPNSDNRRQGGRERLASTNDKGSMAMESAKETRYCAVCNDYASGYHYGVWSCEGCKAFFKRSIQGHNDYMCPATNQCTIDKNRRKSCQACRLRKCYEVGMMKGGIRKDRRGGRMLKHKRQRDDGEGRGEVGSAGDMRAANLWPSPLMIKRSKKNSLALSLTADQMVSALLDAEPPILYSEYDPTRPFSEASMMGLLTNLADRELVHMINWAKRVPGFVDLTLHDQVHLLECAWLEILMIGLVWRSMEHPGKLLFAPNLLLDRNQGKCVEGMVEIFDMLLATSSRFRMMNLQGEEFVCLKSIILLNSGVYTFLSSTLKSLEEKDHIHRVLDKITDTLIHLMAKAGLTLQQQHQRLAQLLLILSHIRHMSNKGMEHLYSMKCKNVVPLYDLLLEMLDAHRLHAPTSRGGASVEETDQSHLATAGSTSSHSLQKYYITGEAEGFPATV
Outline: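 MCF-7, charcoal-stripped FBS/RPMI, 3200 cells/well, adhered overnight. Formalin fix, SP1 Ab o/n 4 °C, IRDye 800CW + DRAQ5; % ER = 800/700 ratio vs untreated.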

[2] = test system: MCF-7 cells; experiment: Breast cancer cell viability assay (CellTiter-Glo, 5 days); format: cell-based; details: 5 days' compound exposure; for IC50: Homo sapiens, MCF7, 120 h
Outline: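 MCF-7 cells, 320 per well in RPMI with 10% FBS and 20 mM HEPES, adhered overnight, then exposed 5 days to an eleven-point semilog dilution (final 0.3-0.000003 μM). CellTiter-Glo luminescence read; % viability = (sample − cell-free background)/(untreated − background) × 100.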

Structure (SMILES) | Emax [1] [%] | DC50 [1] [nM] | MCF7 Viability Assay Max Response [2] | IC50 [2] [nM]
CC/C(=C(/c1ccc(/C=C/C(=O)O)cc1)c1ccc2[nH]ncc2c1F)c1ccc(Oc2ccccn2)cc1 [Compound 296, (E)-3-(4-((E)-1-(4-Fluoro-1H-indazol-5-yl)-2-(4-(pyridin-2-yloxy)phenyl)but-1-en-1-yl)phenyl)acrylic acid] | ≥ 40 | ≤ 100 | ++ (++ = a single % value ≧ 40%) | ≤ 100
CC/C(=C(/c1ccc(/C=C/C(=O)O)cc1)c1ccc2[nH]ncc2c1)c1cc(Oc2ccccc2)ccc1C [Compound 297, (E)-3-(4-((E)-1-(1H-Indazol-5-yl)-2-(2-methyl-5-phenoxyphenyl)but-1-en-1-yl)phenyl)acrylic acid] | ≥ 40 | ≤ 100 | ++ (++ = a single % value ≧ 40%) | ≤ 100
CC/C(=C(/c1ccc(/C=C/C(=O)O)cc1)c1ccc2[nH]ncc2c1)c1cccc(Oc2ccccc2)c1F [Compound 298, (E)-3-(4-((E)-2-(2-Fluoro-3-phenoxyphenyl)-1-(1H-indazol-5-yl)but-1-en-1-yl)phenyl)acrylic acid] | ≥ 40 | ≤ 100 | ++ (++ = a single % value ≧ 40%) | ≤ 100
CC/C(=C(/c1ccc(/C=C/C(=O)O)cc1)c1ccc2scnc2c1)c1cccc(Oc2ccccc2)c1 [Compound 299, (E)-3-(4-((E)-1-(Benzo[d]thiazol-5-yl)-2-(3-phenoxyphenyl)but-1-en-1-yl)phenyl)acrylic acid] | ≥ 40 | ≤ 100 | ++ (++ = a single % value ≧ 40%) | > 100
CC/C(=C(/c1ccc(/C=C/C(=O)O)cc1)c1ccc2scnc2c1)c1cccc(Oc2ccccn2)c1 [Compound 300, (E)-3-(4-((E)-1-(Benzo[d]thiazol-5-yl)-2-(3-(pyridin-2-yloxy)phenyl)but-1-en-1-yl)phenyl)acrylic acid] | ≥ 40 | ≤ 100 | ++ (++ = a single % value ≧ 40%) | > 100
CC/C(=C(/c1ccc(/C=C/C(=O)O)cc1)c1ccc2scnc2c1)c1cccc(Oc2cnccn2)c1 [Compound 301, (E)-3-(4-((E)-1-(Benzo[d]thiazol-5-yl)-2-(3-(pyrazin-2-yloxy)phenyl)but-1-en-1-yl)phenyl)acrylic acid] | ≥ 40 | ≤ 100 | ++ (++ = a single % value ≧ 40%) | > 100
CC/C(=C(/c1ccc(/C=C/C(=O)O)cc1)c1ccc2[nH]ncc2c1)c1ccc([S+]([O-])C(F)(F)F)cc1 (stereo not drawn) [Compound 302, (E)-3-(4-((E)-1-(1H-Indazol-5-yl)-2-(4-((trifluoromethyl)sulfinyl)phenyl)but-1-en-1-yl)phenyl)acrylic acid] | ≥ 40 | ≤ 100 | ++ (++ = a single % value ≧ 40%) | ≤ 100
CC/C(=C(/c1ccc(/C=C/C(=O)O)cc1)c1ccc2[nH]ncc2c1)c1ccncc1C#N [Compound 303, (E)-3-(4-((E)-2-(3-Cyanopyridin-4-yl)-1-(1H-indazol-5-yl)but-1-en-1-yl)phenyl)acrylic acid] | ≥ 40 | > 100 | ++ (++ = a single % value ≧ 40%) | > 100
CC/C(=C(/c1ccc(/C=C/C(=O)O)cc1)c1ccc2[nH]ncc2c1)c1ccncc1C(F)(F)F [Compound 304, (E)-3-(4-((E)-1-(1H-Indazol-5-yl)-2-(3-(trifluoromethyl)pyridin-4-yl)but-1-en-1-yl)phenyl)acrylic acid] | ≥ 40 | ≤ 100 | ++ (++ = a single % value ≧ 40%) | ≤ 100
O=C(O)/C=C/c1ccc(/C(=C(\c2ccncc2Cl)C2CCC2)c2ccc3[nH]ncc3c2)cc1 [Compound 305, (E)-3-(4-((E)-2-(3-Chloropyridin-4-yl)-2-cyclobutyl-1-(1H-indazol-5-yl)vinyl)phenyl)acrylic acid] | ≥ 40 | ≤ 100 | ++ (++ = a single % value ≧ 40%) | ≤ 100
CC/C(=C(/c1ccc(/C=C/C(=O)O)cc1)c1ccc2[nH]nc(F)c2c1)c1ccncc1Cl [Compound 306, (E)-3-(4-((E)-2-(3-Chloropyridin-4-yl)-1-(3-fluoro-1H-indazol-5-yl)but-1-en-1-yl)phenyl)acrylic acid] | ≥ 40 | ≤ 100 | ++ (++ = a single % value ≧ 40%) | ≤ 100
O=C(O)/C=C/c1ccc(/C(=C(\c2ccncc2Cl)C2CCC2)c2ccc3[nH]nc(F)c3c2)cc1 [Compound 307, (E)-3-(4-((E)-2-(3-Chloropyridin-4-yl)-2-cyclobutyl-1-(3-fluoro-1H-indazol-5-yl)vinyl)phenyl)acrylic acid] | ≥ 40 | ≤ 100 | ++ (++ = a single % value ≧ 40%) | ≤ 100
O=C(O)/C=C/c1ccc(/C(=C(\c2ccc(F)cc2Cl)C2CCC2)c2ccc3nccn3c2)cc1 [Compound 311, (E)-3-(4-((E)-2-(2-Chloro-4-fluorophenyl)-2-cyclobutyl-1-(imidazo[1,2-a]pyridin-6-yl)vinyl)phenyl)acrylic acid] | ≥ 40 | ≤ 100 | ++ (++ = a single % value ≧ 40%) | ≤ 100
CC/C(=C(/c1ccc(/C=C/C(=O)O)cc1)c1ccc2[nH]nc(F)c2c1)c1cscc1C [Compound 312, (E)-3-(4-((E)-1-(3-Fluoro-1H-indazol-5-yl)-2-(4-methylthiophen-3-yl)but-1-en-1-yl)phenyl)acrylic acid] | ≥ 40 | ≤ 100 | ++ (++ = a single % value ≧ 40%) | ≤ 100
Cc1cscc1/C(=C(\c1ccc(/C=C/C(=O)O)cc1)c1ccc2[nH]nc(F)c2c1)C1CCC1 [Compound 313, (E)-3-(4-((E)-2-Cyclobutyl-1-(3-fluoro-1H-indazol-5-yl)-2-(4-methylthiophen-3-yl)vinyl)phenyl)acrylic acid] | ≥ 40 | ≤ 100 | ++ (++ = a single % value ≧ 40%) | ≤ 100
CC/C(=C(/c1ccc(/C=C/C(=O)O)cc1)c1ccc2[nH]ncc2c1)c1ccc2sncc2c1 [Compound 314, (E)-3-(4-((E)-2-(Benzo[d]isothiazol-5-yl)-1-(1H-indazol-5-yl)but-1-en-1-yl)phenyl)acrylic acid] | ≥ 40 | ≤ 100 | ++ (++ = a single % value ≧ 40%) | ≤ 100
CC/C(=C(/c1ccc(/C=C/C(=O)O)cc1)c1ccc2[nH]ncc2c1)c1ccc(Oc2ccncc2)cc1 [Compound 315, (E)-3-(4-((E)-1-(1H-Indazol-5-yl)-2-(4-(pyridin-4-yloxy)phenyl)but-1-en-1-yl)phenyl)acrylic acid] | ≥ 40 | ≤ 100 | ++ (++ = a single % value ≧ 40%) | ≤ 100
CC/C(=C(/c1ccc(/C=C/C(=O)O)cc1)c1ccc2[nH]ncc2c1)c1ccc(Oc2ccccn2)cc1 [Compound 316, (E)-3-(4-((E)-1-(1H-Indazol-5-yl)-2-(4-(pyridin-2-yloxy)phenyl)but-1-en-1-yl)phenyl)acrylic acid] | ≥ 40 | ≤ 100 | ++ (++ = a single % value ≧ 40%) | ≤ 100
CC/C(=C(/c1ccc(/C=C/C(=O)O)cc1)c1ccc2[nH]ncc2c1)c1ccc(Cc2ccccc2)cc1 [Compound 317, (E)-3-(4-((E)-2-(4-Benzylphenyl)-1-(1H-indazol-5-yl)but-1-en-1-yl)phenyl)acrylic acid] | ≥ 40 | ≤ 100 | ++ (++ = a single % value ≧ 40%) | ≤ 100
CC/C(=C(/c1ccc(/C=C/C(=O)O)cc1)c1ccc2[nH]ncc2c1)c1ccc(C)c(Oc2ccccc2)c1 [Compound 318, (E)-3-(4-((E)-1-(1H-Indazol-5-yl)-2-(4-methyl-3-phenoxyphenyl)but-1-en-1-yl)phenyl)acrylic acid] | ≥ 40 | ≤ 100 | ++ (++ = a single % value ≧ 40%) | > 100
CC/C(=C(/c1ccc(/C=C/C(=O)O)cc1)c1ccc2[nH]ncc2c1)c1ccc(Oc2ccccc2)cc1C [Compound 319, (E)-3-(4-((E)-1-(1H-Indazol-5-yl)-2-(2-methyl-4-phenoxyphenyl)but-1-en-1-yl)phenyl)acrylic acid] | ≥ 40 | ≤ 100 | ++ (++ = a single % value ≧ 40%) | ≤ 100
